Patent US20170050957A1, “4-AMINO-6-(HETEROCYCLIC)PICOLINATES AND 6-AMINO-2-(HETEROCYCLIC)PYRIMIDINE-4-CARBOXYLATES AND THEIR USE AS HERBICIDES” (Dow AgroSciences LLC, priority 2013, published 2017)
Like-named read-outs stand apart in the source and are kept apart here.

Legend:
[1] = test system: Key Grass and Sedge Weeds as well as Grass Crops; test: Post-emergent Test II herbicidal activity (Table 16); assay type: in vivo; settings: post-emergence, 336 h, 14 d; for pest or weed control at 35 g/ha: 35 g ai/ha; for pest or weed control at 70 g/ha: 70 g ai/ha; for pest or weed control at 140 g/ha: 140 g ai/ha
In short: (§1)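 Plants at first-second true leaf stage, grown 7-21 d in greenhouse (~15 h photoperiod, 23-29 °C day), were track-sprayed at 187 L/ha with compound in acetone/DMSO/water/isopropanol/crop oil/Triton X-155 at a high rate plus 1/2× to 1/16× dilutions. Injury scored visually after 14 d versus untreated plants, 0 (none) to 100% (complete kill).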

[2] = test system: Key Broadleaf Weed and Crop Species; test: Post-emergent Test II herbicidal activity (Table 15); assay type: in vivo; settings: post-emergence, 336 h, 14 d; for pest or weed control at 35 g/ha: 35 g ai/ha; for pest or weed control at 70 g/ha: 70 g ai/ha; for pest or weed control at 140 g/ha: 140 g ai/ha
In short: as §1

[3] = Cyperus esculentus, yellow nutsedge (Cyperus esculentus), read-out: Visual Growth Reduction (%) 14 Days After Application, CYPES
[4] = Echinochloa crus-galli, barnyardgrass (Echinochloa crus-galli), read-out: Visual Growth Reduction (%) 14 Days After Application, ECHCG
[5] = Oryza sativa, rice (Oryza sativa), read-out: Visual Growth Reduction (%) 14 Days After Application, ORYSA
[6] = Setaria faberi, giant foxtail (Setaria faberi), read-out: Visual Growth Reduction (%) 14 Days After Application, SETFA
[7] = Triticum aestivum, wheat, spring (Triticum aestivum), read-out: Visual Growth Reduction (%) 14 Days After Application, TRZAS
[8] = Zea mays, maize, corn (Zea mays), read-out: Visual Growth Reduction (%) 14 Days After Application, ZEAMX
[9] = Abutilon theophrasti, velvetleaf (Abutilon theophrasti), read-out: Visual Growth Reduction (%) 14 Days After Application, ABUTH
[10] = Amaranthus retroflexus, redroot pigweed (Amaranthus retroflexus), read-out: Visual Growth Reduction (%) 14 Days After Application, AMARE
[11] = Brassica napus, oilseed rape, canola (Brassica napus), read-out: Visual Growth Reduction (%) 14 Days After Application, BRSNN
[12] = Chenopodium album, lambsquarters (Chenopodium album), read-out: Visual Growth Reduction (%) 14 Days After Application, CHEAL
[13] = Euphorbia heterophylla, wild poinsettia (Euphorbia heterophylla), read-out: Visual Growth Reduction (%) 14 Days After Application, EPHHL
[14] = Helianthus annuus, sunflower (Helianthus annuus), read-out: Visual Growth Reduction (%) 14 Days After Application, HELAN

COC(=O)c1nc(-c2cc3ccoc3cc2F)nc(N)c1OC [Compound 2.05]
melting point: 160 °C | pest or weed control at 35 g/ha [1, 3]: 0 to 29% | pest or weed control at 70 g/ha [1, 3]: 0 to 29% | pest or weed control at 140 g/ha [1, 3]: 0 to 29% | pest or weed control at 35 g/ha [1, 4]: 0 to 29% | pest or weed control at 70 g/ha [1, 4]: 0 to 29% | pest or weed control at 140 g/ha [1, 4]: 0 to 29% | pest or weed control at 35 g/ha [1, 5]: 0 to 29% | pest or weed control at 70 g/ha [1, 5]: 0 to 29% | pest or weed control at 140 g/ha [1, 5]: 0 to 29% | pest or weed control at 35 g/ha [1, 6]: 0 to 29% | pest or weed control at 70 g/ha [1, 6]: 0 to 29% | pest or weed control at 140 g/ha [1, 6]: 0 to 29% | pest or weed control at 35 g/ha [1, 7]: 0 to 29% | pest or weed control at 70 g/ha [1, 7]: 0 to 29% | pest or weed control at 140 g/ha [1, 7]: 0 to 29% | pest or weed control at 35 g/ha [1, 8]: 0 to 29% | pest or weed control at 70 g/ha [1, 8]: 0 to 29% | pest or weed control at 140 g/ha [1, 8]: 0 to 29% | pest or weed control at 35 g/ha [2, 9]: 0 to 29% | pest or weed control at 70 g/ha [2, 9]: 0 to 29% | pest or weed control at 140 g/ha [2, 9]: 0 to 29% | pest or weed control at 35 g/ha [2, 10]: 85 to 94% | pest or weed control at 70 g/ha [2, 10]: 75 to 84% | pest or weed control at 140 g/ha [2, 10]: 95 to 100% | pest or weed control at 35 g/ha [2, 11]: 0 to 29% | pest or weed control at 70 g/ha [2, 11]: 0 to 29% | pest or weed control at 140 g/ha [2, 11]: 0 to 29% | pest or weed control at 35 g/ha [2, 12]: 0 to 29% | pest or weed control at 70 g/ha [2, 12]: 0 to 29% | pest or weed control at 140 g/ha [2, 12]: 45 to 59% | pest or weed control at 35 g/ha [2, 13]: 30 to 44% | pest or weed control at 70 g/ha [2, 13]: 30 to 44% | pest or weed control at 140 g/ha [2, 13]: 45 to 59% | pest or weed control at 35 g/ha [2, 14]: 0 to 29% | pest or weed control at 70 g/ha [2, 14]: 0 to 29% | pest or weed control at 140 g/ha [2, 14]: 30 to 44%
